Counter-ions that a name gives are not always drawn. Like-named read-outs stand apart in the source and are kept apart here.
System: Normal Human Serum (NHS)
Experiment: Hemolysis assay: lysis of rabbit erythrocytes (RE) by Normal Human Serum (NHS)
Type: cell-based
Conditions: rabbit erythrocyte, 0.5 h, GVB0 plus 10 mM Mg-EGTA, 37° C.
Protocol: The hemolysis assay was previously described by G. Ruiz-Gomez, et al., J. Med. Chem. (2009) 52: 6042-6052. Prior to the assay, the optimum concentration of Normal Human Serum (NHS) needed to achieve 100% lysis of rabbit erythrocytes (RE) is determined by titration. In the assay, NHS (Complement Technology) is diluted in GVB^0 Buffer (0.1% gelatin, 5 mM Veronal, 145 mM NaCl, 0.025% NaN3, pH 7.3, Complement Technology) plus 10 mM Mg-EGTA and incubated with test compound at various concentrations for 15 minutes at 37° C. RE (Complement Technology) freshly suspended in GVB^0 plus 10 mM Mg-EGTA are added to a final concentration of 1×10^8 cells/mL and reactions are incubated for 30 minutes at 37° C. Positive control reactions (100% lysis) consist of GVB^0 plus 10 mM Mg-EGTA with NHS and RE but without test compound; negative control reactions (0% lysis) consist of GVB^0 plus 10 mM Mg-EGTA with RE only. Samples are centrifuged at 2000 g for 3 minutes and supernatants collected. Absorbance at 405 nm (A405) is recorded using a microplate spectrophotometer. IC50 values are calculated by nonlinear regression from the percentage of hemolysis as a function of test compound concentration.

[1] = Table 1, hemolysis of rabbit erythrocytes with NHS, read-out: IC50
[2] = Table 3, hemolysis of rabbit erythrocytes with NHS, read-out: IC50 (Stars)
[3] = Table 2, hemolysis of rabbit erythrocytes with NHS, read-out: IC50 (Stars)

SMILES	IC50 [1] [µM]	IC50 [2] [µM]	further results
COc1cc2c(N)nc(N3CC4CCC(C3)N4C(=O)C=Cc3ccc(F)cc3)nc2c(F)c1OC [Compound 14, 1-(3-(4-Amino-8-fluoro-6,7-dimethoxyquinazolin-2-yl)-3,8-diazabicyclo[3.2.1]octan-8-yl)-3-(4-fluorophenyl)prop-2-en-1-one]	> 10		
CCN[C@H](CC(=O)N1CC2CCC1CN2c1nc(N)c2cc(OC)c(OC)c(F)c2n1)c1ccc(F)cc1 (stereo partly drawn) [Compound 15, (3R)-1-(5-(4-Amino-8-fluoro-6,7-dimethoxyquinazolin-2-yl)-2,5-diazabicyclo[2.2.2]octan-2-yl)-3-(ethylamino)-3-(4-fluorophenyl)propan-1-one]	> 10		
COc1cc(C)c2[nH]ncc2c1CN1CC[C@@H](C)C[C@H]1c1ccc(C(=O)O)cc1 [Compound 21, 4-((2S, 4R)-1-((5-Methoxy-7-methyl-1H-indazol-4-yl) Methyl)-4-methylpiperidin-2-yl) Benzoic Acid]		> 10	
COc1cc2c(N)nc(C3=CCN(C(=O)C[C@@H]4C[C@@H]5CCCC[C@@H]5N4)CC3)nc2c(F)c1OC [Compound 18, 1-(4-(4-Amino-8-fluoro-6,7-dimethoxyquinazolin-2-yl)-3,6-dihydropyridin-1(2H)-yl)-2-((2S,3aS,7aS)-octahydro-1H-indol-2-yl)ethan-1-one TFA salt]			IC50 [3]: < 1 µM
COc1cc(C)c2[nH]ccc2c1CN1CC[C@H](C)C[C@@H]1c1ccc(P(=O)(O)O)cc1 [Compound 33, 4-((2R, 4S)-1-((5-Methoxy-7-methyl-1H-indol-4-yl)methyl)-4-methylpiperidin-2-yl) Phenylphosphonic Acid]		1 to 10	
CCN[C@H](CC(=O)N1CC2CCC(C1)N2c1nc(N)c2cc(OC)c(OC)c(F)c2n1)c1ccc(C#N)cc1 [Compound 16, 4-((1R)-3-(8-(4-Amino-8-fluoro-6,7-dimethoxyquinazolin-2-yl)-3,8-diazabicyclo[3.2.1]octan-3-yl)-1-(ethylamino)-3-oxopropyl)benzonitrile]			IC50 [3]: < 1 µM
COc1cc(C)c2[nH]ccc2c1CN1CC[C@H](C)C[C@@H]1c1ccc(S(C)(=N)=O)cc1 (stereo partly drawn) [Compound 23, 5-Methoxy-7-methyl-4-(((2R,4S)-4-methyl-2-(4-(S-methylsulfonimidoyl)phenyl)piperidin-1-yl)methyl)-1H-indole]		> 10	
COc1cc(C)c2[nH]ccc2c1CN1CC[C@@H](C)C[C@@H]1c1ccc(C(=O)O)c2c1CCCC2 [Compound 35, 4-((2R,4R)-1-((5-Methoxy-7-methyl-1H-indol-4-yl)methyl)-4-methylpiperidin-2-yl)-5,6,7,8-tetrahydronaphthalene-1-carboxylic Acid]		> 10	
CCN[C@H](CC(=O)N1CCN(c2nc(N)c3cc4c(c(F)c3n2)OC(F)(F)O4)CC1)c1ccc(F)cc1 [Compound 12, (R)-1-(4-(8-Amino-2,2,4-trifluoro-[1,3]dioxolo[4,5-g]quinazolin-6-yl)piperazin-1-yl)-3-(ethylamino)-3-(4-fluorophenyl)propan-1-one]	1 to 10		
CCN[C@H](CC(=O)N1CCC(c2nc(N)c3cc(OC)c(OC)c(F)c3n2)C(C(=O)OC)C1)c1ccc(F)cc1 (stereo partly drawn) [Compound 7, Methyl 4-(4-amino-8-fluoro-6,7-dimethoxyquinazolin-2-yl)-1-((R)-3-(ethylamino)-3-(4-fluorophenyl)propanoyl)piperidine-3-carboxylate]	> 10		
CCN[C@H](CC(=O)N1CCC(c2nc(N)c3cc(OC)c(OC)c(F)c3n2)C(C(=O)O)C1)c1ccc(F)cc1 (stereo partly drawn) [Compound 9, 4-(4-Amino-8-fluoro-6,7-dimethoxyquinazolin-2-yl)-1-((R)-3-(ethylamino)-3-(4-fluorophenyl)propanoyl)piperidine-3-carboxylic acid]	1 to 10		
COc1cc(C)c2[nH]ccc2c1CN1CC[C@@H](C)C[C@H]1c1ccc(P(=O)(O)O)cc1 [Compound 32, (4-((2S,4R)-1-((5-Methoxy-7-methyl-1H-indol-4-yl)methyl)-4-methylpiperidin-2-yl)phenyl)phosphonic Acid]		< 1	
CCN[C@H](CC(=O)N1CC=C(c2nc(N)c3cc(OC)c(OC)c(F)c3n2)CC1)c1ccc(F)cc1 [Compound 4, (R)-1-(4-(4-Amino-8-fluoro-6,7-dimethoxyquinazolin-2-yl)-3,6-dihydropyridin-1(2H)-yl)-3-(ethylamino)-3-(4-fluorophenyl)propan-1-one]	< 1		
CCN[C@H](CC(=O)N1CC2CCC(C1)N2c1nc(N)c2cc(OC)c(OC)c(F)c2n1)c1ccc(F)cc1 [Compound 13, (3R)-1-(8-(4-Amino-8-fluoro-6,7-dimethoxyquinazolin-2-yl)-3,8-diazabicyclo[3.2.1]octan-3-yl)-3-(ethylamino)-3-(4-fluorophenyl)propan-1-one]	< 1		
COc1cc(C)c2[nH]ccc2c1CN1CCC(C)CC1c1ccc(C(=O)NO)cc1 (stereo not drawn) [Compound 27, N-Hydroxy-4-(1-((5-methoxy-7-methyl-1H-indol-4-yl)methyl)-4-methylpiperidin-2-yl)benzamide]		< 1	
COc1cc(C)c2[nH]ccc2c1CN1CC[C@@H](C)C[C@H]1c1ccc(P(C)(=O)O)cc1 [Compound 29, 4-((2S, 4R)-1-((5-Methoxy-7-methyl-1H-indol-4-yl)methyl)-4-methylpiperidin-2-yl) Phenyl (Methyl) Phosphinic Acid]		< 1	
COc1cc(C)c2[nH]ccc2c1CN1CCC(F)(F)CC1c1ccc(C(=O)O)cc1 (stereo not drawn) [Compound 19, 4-(4,4-difluoro-1-((5-methoxy-7-methyl-1H-indol-4-yl)methyl)piperidin-2-yl)benzoic Acid]		> 10	
CCN[C@H](CC(=O)N1C(C)C=C(c2nc(N)c3cc(OC)c(OC)c(F)c3n2)CC1C)c1ccc(F)cc1 (stereo partly drawn) [Compound 10, (3R)-1-(4-(4-Amino-8-fluoro-6,7-dimethoxyquinazolin-2-yl)-2,6-dimethyl-3,6-dihydropyridin-1(2H)-yl)-3-(ethylamino)-3-(4-fluorophenyl)propan-1-one]	< 1		
COc1cc2c(N)nc(N3CCN(C(=O)CC4NCCS4)CC3)nc2c(F)c1OC (stereo not drawn) [Compound 1, 1-(4-(4-Amino-8-fluoro-6,7-dimethoxyquinazolin-2-yl)piperazin-1-yl)-2-(thiazolidin-2-yl)ethan-1-one Hydrochloride]	> 10		
COc1cc(C)c2[nH]ccc2c1CN1CCC(C)CC1c1ccc(P(=O)(O)O)cc1 (stereo not drawn) [Compound 26, 4-(1-((5-Methoxy-7-methyl-1H-indol-4-yl)methyl)-4-methylpiperidin-2-yl)phenylphosphonic Acid]		< 1	
COc1cc(C)c2[nH]ccc2c1CN1CC[C@@H](C)C[C@H]1c1ccc([S@@](C)(=N)=O)cc1 [Compound 30, 5-Methoxy-7-methyl-4-(((2S,4R)-4-methyl-2-(4-((S)—S-methylsulfonimidoyl)phenyl)piperidin-1-yl)methyl)-1H-indole]		< 1	
CCN[C@H](CC(=O)N1CC=C(c2nc(N)c3cc(OC)c(OC)c(F)c3n2)CC1)c1ccc(C#N)cc1 [Compound 17, (R)-4-(3-(4-(4-Amino-8-fluoro-6,7-dimethoxyquinazolin-2-yl)-3,6-dihydropyridin-1(2H)-yl)-1-(ethylamino)-3-oxopropyl)benzonitrile]			IC50 [3]: < 1 µM
CCN[C@H](CC(=O)N1CCC(c2nc(N)c3cc(OC)c(OC)c(F)c3n2)=C(C(=O)O)C1)c1ccc(F)cc1 [Compound 8, (R)-4-(4-Amino-8-fluoro-6,7-dimethoxyquinazolin-2-yl)-1-(3-(ethylamino)-3-(4-fluorophenyl)propanoyl)-1,2,5,6-tetrahydropyridine-3-carboxylic Acid]	> 10		
CCN[C@H](CC(=O)N1CCC(c2nc(N)c3cc(OC)c(OC)c(F)c3n2)=C(C(=O)OC)C1)c1ccc(F)cc1 [Compound 6, Methyl (R)-4-(4-amino-8-fluoro-6,7-dimethoxyquinazolin-2-yl)-1-(3-(ethylamino)-3-(4-fluorophenyl)propanoyl)-1,2,5,6-tetrahydropyridine-3-carboxylate]	1 to 10		
COc1cc(C)c2[nH]ccc2c1CN1CCCC[C@H]1C1CCC(C(=O)O)CC1 (stereo partly drawn) [Compound 20, (1R,4S)-4-((S)-1-((5-Methoxy-7-methyl-1H-indol-4-yl)methyl)piperidin-2-yl) Cyclohexanecarboxylic Acid]		> 10	
COc1cc2c(N)nc(N3CCN(C(=O)C[C@@H]4C[C@@H]5CCCC[C@@H]5N4)CC3)nc2c(F)c1OC [Compound 3, 1-(4-(4-Amino-8-fluoro-6,7-dimethoxyquinazolin-2-yl)piperazin-1-yl)-2-((2S,3aS,7aS)-octahydro-1H-indol-2-yl)ethan-1-one Hydrochloride]	< 1		
COc1cc(C)c2[nH]ccc2c1CN1CC[C@@H](C)C[C@H]1c1ccc(C(=O)O)c2c1CCCC2 [Compound 34, 4-((2S,4R)-1-((5-Methoxy-7-methyl-1H-indol-4-yl)methyl)-4-methylpiperidin-2-yl)-5,6,7,8-tetrahydronaphthalene-1-carboxylic Acid]		< 1	
